Data published in US20250312349A1, “COMPOSITION AND METHODS OF TREATING INTRACELLULAR PATHOGEN INFECTION” (UNIVERSITY HOSPITALS CLEVELAND MEDICAL CENTER, priority 2024, published 2025).

Test system: Akt
Test: Immunoblot of phospho-S473 Akt in T. gondii-infected CHO cells
Type: cell-based, Chinese Hamster
Conditions: lysates at 2 h
Experimental: FIGS. 4(A-C) illustrate Src inhibition induces T. gondii killing by impairing Akt activation. (A) CHO cells were challenged with RH-T. gondii. Cell lysates collected at 2 h were probed for Akt and phospho-S473 Akt. Relative density of phospho-Akt was normalized to total Akt and compared to the uninfected sample. Densitometry graph shown as mean±SEM from 3 independent experiments. (B-C) CHO cells or primary brain endothelial cells were transfected with plasmids encoding HA-tagged CA- or HA-tagged WT-Akt. Lysates were probed for actin, HA, Akt and phospho-S473 Akt. Cells were challenged with T. gondii and treated with Saracatinib (1 μM). Cell lysates collected at 2 h were probed for Akt and phospho-S473 Akt. Relative density of phospho-Akt and densitometries were examined as above. Percentages of infected cells and tachyzoites per 100 cells were assessed at 24 h. Data are shown as mean±SEM. The graphs show data from 6 independent monolayers pooled from 3 different experiments. Data points are shown as circles, triangles, or squares corresponding to individual monolayers within each experiment. […]

CN1CCN(CCOc2cc(OC3CCOCC3)c3c(Nc4c(Cl)ccc5c4OCO5)ncnc3c2)CC1 [Saracatinib, N-(5-chloro-1,3-benzodioxol-4-yl)-7-(2-(4-methylpiperazin-1-yl)ethoxy)-5-(tetrahydro-2H-pyran-4-yloxy)quinazolin-4-amine]
T. gondii-induced phosphorylation of Akt at Ser473: abrogated
